Reference: patent US10760065B2, “Tuning microbial populations with programmable nucleases” (priority 2013, dated 2020)
Values after ≈ are worked out from the molar mass of the structure shown.

How the values were obtained:
EMG2 pNDM-1 = experiment: MIC determination by broth microdilution; format: cell-based, E. coli; conditions: strain EMG2 pNDM-1, LB broth; for MIC: Escherichia coli, read-out: Minimum Inhibitory Concentration (MIC)
Procedure: (§1) MICs were determined by broth microdilution using LB broth according to the CLSI guidelines (Clinical and Laboratory Standards Institute. Methods for Dilution Antimicrobial Susceptibility Tests for Bacteria That Grow Aerobically; Approved Standard—Seventh Edition. 64 (2006)).

EMG2 gyrAD87G = experiment: MIC determination by broth microdilution; format: cell-based, E. coli; conditions: strain EMG2 gyrAD87G, LB broth; for MIC: Escherichia coli, read-out: Minimum Inhibitory Concentration (MIC)
Procedure: as §1

EMG2 pSHV-18 = experiment: MIC determination by broth microdilution; format: cell-based, E. coli; conditions: strain EMG2 pSHV-18, LB broth; for MIC: Escherichia coli, read-out: Minimum Inhibitory Concentration (MIC)
Procedure: as §1

EMG2 Wild-Type = experiment: microbe, parasite or virus in culture; format: cell-based, E. coli; conditions: strain EMG2 Wild-Type, LB broth; for MIC: Escherichia coli, read-out: Minimum Inhibitory Concentration (MIC)
Procedure: as §1

EHEC strain = experiment: Antibiotic susceptibility of the EHEC strain; format: cell-based, E. coli
EHEC = experiment: Galleria mellonella infection model, survival; format: in vivo; conditions: ΦRGNeae MOI ~30; chloramphenicol or carbenicillin 32 mg/kg; Log-rank p<0.05
Procedure: Galleria mellonella larvae were injected with either PBS (uninfected) or approximately 4×10^5 colony forming units (CFU) of EHEC. […] Survival curves represent an aggregate of four independent experiments, each with 20 worms per treatment group (n=80). […] G. mellonella larvae (n=40) were injected with PBS or approximately 3×10^5 colony forming units (CFU) of EHEC. Larvae were subsequently treated with PBS, ΦRGNeae at MOI ˜30, chloramphenicol, or carbenicillin. The antibiotics were both applied at a concentration of 32 mg/kg, corresponding to the CLSI resistance breakpoints for Enterobacteriaceae (32 μg/mL).
Larvae of the model organism Galleria mellonella (Desbois, A. P. & Coote, P. J. Adv. Appl. Microbiol. 78, 25-53 (2012)) were purchased from Vanderhorst Wholesale, Inc. (St. Marys, Ohio, USA) and received in the final larval instar for survival assays. Larvae were removed from food source, allowed to acclimate for at least 24 h at room temperature in the dark, and used within 4 days of receipt. […] Larvae were incubated at 37° C. and survival was monitored at 12 hour intervals for 72 hours, with death indicated by lack of movement and unresponsiveness to touch (Desbois, A. P. & Coote, P. J. Adv. Appl. Microbiol. 78, 25-53 (2012)). Kaplan-Meier survival curves were generated on the data pooled from four independent experiments and analyzed with the log-rank test using GraphPad Prism.

Compound	MIC (EMG2 pNDM-1)	MIC (EMG2 gyrAD87G)	MIC (EMG2 pSHV-18)	MIC (EMG2 Wild-Type)	further results
gentamicin					Minimum Inhibitory Concentration (MIC) (EMG2 pNDM-1): >64 µg/mL; Minimum Inhibitory Concentration (MIC) (EMG2 gyrAD87G): 4 µg/mL; Minimum Inhibitory Concentration (MIC) (EMG2 pSHV-18): >64 µg/mL; Minimum Inhibitory Concentration (MIC) (EMG2 Wild-Type): 4 µg/mL
CO/N=C(\C(=O)N[C@@H]1C(=O)N2C(C(=O)O)=C(COC(C)=O)CS[C@H]12)c1csc(N)n1 [CTX, cefotaxime]	> 64 µg/mL	≤ 0.0625 µg/mL	0.25 µg/mL (≈ 0.549 µM)	≤ 0.0625 µg/mL	
CC1(C)S[C@@H]2[C@H](NC(=O)C(C(=O)O)c3ccccc3)C(=O)N2[C@H]1C(=O)O (stereo partly shown) [carbenicillin]					susceptibility of EHEC strain (EHEC strain): susceptible; survival of EHEC-infected larvae, comparison with antibiotics (EHEC): superior to ΦRGNeae treatment
C[C@@H](O)[C@H]1C(=O)N2C(C(=O)O)=C(SCCN=CN)C[C@H]12 [IPM, imipenem]	32 µg/mL (≈ 107 µM)			0.25 µg/mL (≈ 0.835 µM)	
O=C(N[C@H](CO)[C@H](O)c1ccc([N+](=O)[O-])cc1)C(Cl)Cl [chloramphenicol]					susceptibility of EHEC strain (EHEC strain): resistant
CC1(C)S[C@@H]2[C@H](NC(=O)[C@H](N)c3ccccc3)C(=O)N2[C@H]1C(=O)O [AMP, ampicillin]	> 64 µg/mL	4 µg/mL (≈ 11.4 µM)	64 µg/mL (≈ 183 µM)	2 µg/mL (≈ 5.72 µM)	
CC1COc2c(N3CCN(C)CC3)c(F)cc3c(=O)c(C(=O)O)cn1c23 (stereo not shown) [OFX, ofloxacin]		0.5 µg/mL (≈ 1.38 µM)		0.125 µg/mL (≈ 0.346 µM)	
CC(C)(O/N=C(\C(=O)N[C@@H]1C(=O)N2C(C(=O)[O-])=C(C[n+]3ccccc3)CS[C@H]12)c1csc(N)n1)C(=O)O [CAZ, ceftazidime]	> 64 µg/mL		1 µg/mL (≈ 1.83 µM)	0.25 µg/mL (≈ 0.457 µM)	
